Results as given in PubChem BioAssay (NCI).
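Exposure lasted 48 hours, with cells grown in 96-well plates and compounds tested at five concentrations. The concentration for 50% growth inhibition is given as GI50. TGI marks complete inhibition of growth.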

Tests used:
Test in all cases: DTP human tumour cell line panel, 48 h
HT29 colon = system: HT29 colon
CCRF-CEM leukemia = system: CCRF-CEM leukemia
COLO 205 colon = system: COLO 205 colon
MOLT-4 leukemia = system: MOLT-4 leukemia
NCI-H23 lung = system: NCI-H23 lung
MCF7 breast = system: MCF7 breast
RXF 393 renal = system: RXF 393 renal
HS 578T breast = system: HS 578T breast
BT-549 breast = system: BT-549 breast
RPMI-8226 leukemia = system: RPMI-8226 leukemia
A498 renal = system: A498 renal
SF-539 CNS = system: SF-539 CNS
SK-MEL-2 melanoma = system: SK-MEL-2 melanoma
UO-31 renal = system: UO-31 renal
NCI-H226 lung = system: NCI-H226 lung
MDA-MB-435 = system: MDA-MB-435
UACC-62 melanoma = system: UACC-62 melanoma
SNB-19 CNS = system: SNB-19 CNS
PC-3 prostate = system: PC-3 prostate
OVCAR-5 ovarian = system: OVCAR-5 ovarian
SK-MEL-5 melanoma = system: SK-MEL-5 melanoma
MALME-3M melanoma = system: MALME-3M melanoma
KM12 colon = system: KM12 colon
NCI-H522 lung = system: NCI-H522 lung
SN12C renal = system: SN12C renal
SR leukemia = system: SR leukemia
UACC-257 melanoma = system: UACC-257 melanoma
HCT-116 colon = system: HCT-116 colon
MDA-MB-231 breast = system: MDA-MB-231 breast
ACHN renal = system: ACHN renal
OVCAR-3 ovarian = system: OVCAR-3 ovarian
T-47D breast = system: T-47D breast
786-0 renal = system: 786-0 renal
LOX IMVI melanoma = system: LOX IMVI melanoma
NCI-H460 lung = system: NCI-H460 lung
U251 CNS = system: U251 CNS
HOP-92 NSCLC = system: HOP-92 NSCLC
DU-145 prostate = system: DU-145 prostate
HCC-2998 colon = system: HCC-2998 colon
SK-OV-3 ovarian = system: SK-OV-3 ovarian
HL-60(TB) leukemia = system: HL-60(TB) leukemia
NCI/ADR-RES ovarian = system: NCI/ADR-RES ovarian
TK-10 renal = system: TK-10 renal
OVCAR-4 ovarian = system: OVCAR-4 ovarian
K-562 leukemia = system: K-562 leukemia
SW-620 colon = system: SW-620 colon
HOP-62 NSCLC = system: HOP-62 NSCLC
EKVX NSCLC = system: EKVX NSCLC
A549 NSCLC = system: A549 NSCLC
SF-295 CNS = system: SF-295 CNS
SNB-75 CNS = system: SNB-75 CNS
HCT-15 colon = system: HCT-15 colon
SF-268 CNS = system: SF-268 CNS
IGROV1 ovarian = system: IGROV1 ovarian
M14 melanoma = system: M14 melanoma
SK-MEL-28 melanoma = system: SK-MEL-28 melanoma
CAKI-1 renal = system: CAKI-1 renal
OVCAR-8 ovarian = system: OVCAR-8 ovarian

## Cc1ccc(-c2nc([P+](c3ccccc3)(c3ccccc3)c3ccccc3)c(N3CCOCC3)o2)cc1
HT29 colon
  GI50: 0.357 µM
  TGI: 11 µM
CCRF-CEM leukemia
  GI50: 0.588 µM
  TGI: 11.3 µM
COLO 205 colon
  GI50: 0.343 µM
  TGI: 1.68 µM
MOLT-4 leukemia
  GI50: 0.499 µM
  TGI: 3.27 µM
NCI-H23 lung
  GI50: 0.456 µM
  TGI: 7.45 µM
MCF7 breast
  GI50: 0.316 µM
  TGI: 2.18 µM
RXF 393 renal
  GI50: 0.706 µM
  TGI: 4.25 µM
HS 578T breast
  GI50: 0.578 µM
  TGI: 9.64 µM
BT-549 breast
  GI50: 0.381 µM
  TGI: 5.14 µM
RPMI-8226 leukemia
  GI50: 0.251 µM
  TGI: 1.16 µM
A498 renal
  GI50: 0.881 µM
  TGI: 4.5 µM
SF-539 CNS
  GI50: 0.787 µM
  TGI: 10.1 µM
SK-MEL-2 melanoma
  GI50: 0.559 µM
  TGI: 2.76 µM
UO-31 renal
  GI50: 2.23 µM
  TGI: 7.3 µM
NCI-H226 lung
  GI50: 0.724 µM
  TGI: 8.03 µM
MDA-MB-435
  GI50: 0.351 µM
  TGI: 1.81 µM
UACC-62 melanoma
  GI50: 0.35 µM
  TGI: 1.45 µM
SNB-19 CNS
  GI50: 0.333 µM
  TGI: 4.91 µM
PC-3 prostate
  GI50: 0.315 µM
  TGI: 3.72 µM
OVCAR-5 ovarian
  GI50: 0.846 µM
  TGI: 11.9 µM
SK-MEL-5 melanoma
  GI50: 0.314 µM
  TGI: 1.03 µM
MALME-3M melanoma
  GI50: 0.378 µM
  TGI: 3.11 µM
KM12 colon
  GI50: 0.368 µM
  TGI: 1.82 µM
NCI-H522 lung
  GI50: 0.371 µM
  TGI: 7.39 µM
SN12C renal
  GI50: 0.335 µM
  TGI: 4.16 µM
SR leukemia
  GI50: 0.418 µM
  TGI: 5.33 µM
UACC-257 melanoma
  GI50: 0.341 µM
  TGI: 3.42 µM
HCT-116 colon
  GI50: 0.356 µM
  TGI: 10.8 µM
MDA-MB-231 breast
  GI50: 0.399 µM
  TGI: 4.93 µM
ACHN renal
  GI50: 2.32 µM
  TGI: 7.53 µM
OVCAR-3 ovarian
  GI50: 0.362 µM
  TGI: 3.69 µM
T-47D breast
  GI50: 0.23 µM
  TGI: 1.83 µM
786-0 renal
  GI50: 2.54 µM
  TGI: 12.7 µM
LOX IMVI melanoma
  GI50: 0.565 µM
  TGI: 2.44 µM
NCI-H460 lung
  GI50: 0.468 µM
  TGI: 10.8 µM
U251 CNS
  GI50: 0.313 µM
  TGI: 11.9 µM
HOP-92 NSCLC
  GI50: 0.3 µM
  TGI: 2.44 µM
DU-145 prostate
  GI50: 0.472 µM
  TGI: 10.9 µM
HCC-2998 colon
  GI50: 0.517 µM
  TGI: 6.87 µM
SK-OV-3 ovarian
  GI50: 0.381 µM
  TGI: 4.32 µM
HL-60(TB) leukemia
  GI50: 0.246 µM
  TGI: 0.738 µM
NCI/ADR-RES ovarian
  GI50: 21.9 µM
  TGI: > 100 µM
TK-10 renal
  GI50: 1.44 µM
  TGI: 9.15 µM
OVCAR-4 ovarian
  GI50: 0.281 µM
  TGI: 3.03 µM
K-562 leukemia
  GI50: 0.331 µM
  TGI: 4.87 µM
SW-620 colon
  GI50: 0.467 µM
  TGI: 11.8 µM
HOP-62 NSCLC
  GI50: 0.83 µM
  TGI: 6.61 µM
EKVX NSCLC
  GI50: 1.08 µM
  TGI: 9.99 µM
A549 NSCLC
  GI50: 0.5 µM
  TGI: 14 µM
SF-295 CNS
  GI50: 1.12 µM
  TGI: 4.35 µM
SNB-75 CNS
  GI50: 0.194 µM
  TGI: 1.11 µM
HCT-15 colon
  GI50: 3.09 µM
  TGI: 12.1 µM
SF-268 CNS
  GI50: 0.389 µM
  TGI: 11 µM
IGROV1 ovarian
  GI50: 0.419 µM
  TGI: 4.11 µM
M14 melanoma
  GI50: 0.543 µM
  TGI: 10.4 µM
SK-MEL-28 melanoma
  GI50: 0.515 µM
  TGI: 9.18 µM
CAKI-1 renal
  GI50: 5.58 µM
  TGI: 17.1 µM
OVCAR-8 ovarian
  GI50: 0.505 µM
  TGI: 9.5 µM
